Measurements as given in patent US20030104079A1, “Skin tissue regeneration promoters comprising ginsenoside Rb1” (Japan Science and Technology Corporation, Japan, priority 2000, published 2003).

Experiments:
[1] = intraperitoneally administered; Kaku et al. 1975; cited from earlier work
[2] = Observation of administered animals for side effects; type: in vivo, rats; conditions: present experiments, animals carefully observed
Source text: The amount of administration of ginsenoside Rb1, which is used as the preparation(s) for external or topical application to skin or the preparation(s) for external or topical application to mucosa, is far smaller than the amount of intravenous administration.
Actually, as indicated in PCT/JP00/04102 (Brain cell or nerve cell protecting agents comprising ginseng), as far as directing treatment or therapy of cerebral infarction by continuous intravenous administration in a dose of […] (weighing 300 g), dihydroginsenoside Rb1 is thought to be a quite safe pharmaceutical composition. The amount of administration of ginsenoside Rb1, which is used as the preparation(s) for external or topical application to skin or the preparation(s) for external or topical application to mucosa, is far smaller than the amount of intravenous administration.

open wound of skin = assay: Open wound (skin defect) healing by intravenous infusion after punch biopsy; type: in vivo, Wistar rats; conditions: vs physiological saline
Experimental: We have examined whether intravenous administration of ginsenoside Rb1 at low dosages or low doses can promote regeneration and/or reconstruction of skin tissue in diseases with defect of skin tissue (bedsore, skin ulcer, burn, frostbite, radiation injury, open wound, ultraviolet injury, electric injury, etc.). For that purpose, for example, by using male Wistar rats (body weight about 300 g), punch biopsy with diameter 6 mm was performed in the dorsal skin region of animals under inhalation anesthesia to prepare open wound, and the animals were allowed to leave as they were. About 1 hour later, ginsenoside Rb1 (12 μg) dissolved in physiological saline was once administered intravenously, then ginsenoside Rb1 was continuously infused intravenously for 7 days by using an Alza osmotic minipump (12 μg/day).
An equal amount of physiological saline was administered intravenously in the control animals, for which the same open wound was made to leave the animals as they were.
On day 2 after finishing continuous intravenous administration of ginsenoside Rb1 or physiological saline, the animals were anesthetized with pentobarbital and fixed transcardialy with perfusion of 0.1 M phosphate buffer containing 4% paraformaldehyde. Thereafter, the skin tissue including the open wound was dissected out, post-fixed and embedded in paraffin. […]

CC(C)=CCC[C@](C)(O[C@@H]1O[C@H](CO[C@@H]2O[C@H](CO)[C@@H](O)[C@H](O)[C@H]2O)[C@@H](O)[C@H](O)[C@H]1O)[C@H]1CC[C@]2(C)[C@@H]1[C@H](O)C[C@@H]1[C@@]3(C)CC[C@H](O[C@@H]4O[C@H](CO)[C@@H](O)[C@H](O)[C@H]4O[C@@H]4O[C@H](CO)[C@@H](O)[C@H](O)[C@H]4O)C(C)(C)[C@@H]3CC[C@]12C [ginsenoside Rb1]
LD50 [1]: 1110 mg/kg
side effect in administered animals [2]: no side effect or ill effect was noted
scar or granulation formation in open wound (HE histology, FIG. 2) (open wound of skin; 12 μg once then 12 μg/day continuous iv for 7 days after 6 mm punch biopsy): scar or granulation formation was obviously little
epithelization of open wound (FIG. 2) (open wound of skin; 12 μg/day continuous iv for 7 days after 6 mm punch biopsy): sufficient epithelization occurred
